Measurements from patent US12390405B2, “Personal care compositions” (Colgate-Palmolive Company, priority 2021, dated 2025).

Legend:
[1] = tested on: human skin (leftover from abdominal plastic surgery); test: Wound healing on ex vivo human skin
Description: The ability of various molecular weights of hyaluronic acid (HA) are tested to determine their respective properties relative to wound healing and repair.
In this study, human skin (leftover from abdominal plastic surgery) is used. An N=6 skin samples are used for each test condition for statistical comparison. Before treatment with test samples and positive control (Allantoin), a controlled mean wound of about 1 mm length is created on the skin by removing epidermis using a diamond spurr tip. Four microliters of test samples or Allantoin (positive control) are applied on the wound followed by incubation of the tissue for 6 days, and then harvesting of the tissues in order for hematoxylin and eosin staining for morphological analysis. The length of the wounds are measured and values are compared for statistical comparison with untreated Day 6 (self-healing of the skin in absence of any treatment).

[2] = tested on: darkly pigmented human epidermal melanocyte cell model; test: Melanocyte viability, Alamar Blue; format: cell-based; conditions: melanocytes, after 5 day of treatment, relative to untreated (100%)
Description: In order to evaluate the melanin synthesis inhibition activity of hexylresorcinol, licorice extract and the combination thereof at certain concentrations, In vitro studies are conducted on darkly pigmented human epidermal melanocyte cell model. Darkly pigmented melanocytes cells are placed on 24-well plates. As a positive control, 0.00025% hydroquinone is used. Hexylresorcinol, licorice extract, and hydroquinone solutions are prepared as follows. […] For combination treatment, 2× solutions of hexylresorcinol and licorice extract are mixed. For single treatment, 2× solutions are mixed with the equal volume of media. Test samples are listed in Table 1. • 0.5 ml of each test sample is directly applied to the 24-well plates in triplicates. After 5 day of treatment, melanocyte viability and melanin synthesis are measured. Melanocyte viability is quantified using Alamar Blue solution, which is a nontoxic dye commonly used to assess cell viability.

melanocytes = test: Melanin synthesis inhibition, separate assay, Table 2a; format: cell-based, human; conditions: sample concentrations per Table 2b
Description: In a separate assay melanin synthesis is quantified as follows. Cells are first rinsed with PBS to remove any residual solution and 200 μl NaOH is added to each cell. The plates are shaken for 4 hours to solubilize melanin produced by melanocytes. Solubilized melanin is measured by a spectrometer at 490 nm.

[3] = tested on: darkly pigmented human epidermal melanocyte cell model; test: Melanin synthesis in melanocytes (NaOH solubilized melanin, 490 nm), Table 2; format: cell-based; conditions: for Change from untreated (reduction in melanin synthesis) / Melanin Synthesis: after 5 day of treatment; for Melanin Synthesis: relative to untreated (100%); for inhibits melanin synthesis: 5 day
Description: In order to evaluate the melanin synthesis inhibition activity of hexylresorcinol, licorice extract and the combination thereof at certain concentrations, In vitro studies are conducted on darkly pigmented human epidermal melanocyte cell model. Darkly pigmented melanocytes cells are placed on 24-well plates. As a positive control, 0.00025% hydroquinone is used. Hexylresorcinol, licorice extract, and hydroquinone solutions are prepared as follows. […] For combination treatment, 2× solutions of hexylresorcinol and licorice extract are mixed. For single treatment, 2× solutions are mixed with the equal volume of media. Test samples are listed in Table 1. • 0.5 ml of each test sample is directly applied to the 24-well plates in triplicates. After 5 day of treatment, melanocyte viability and melanin synthesis are measured. Melanin synthesis is quantified as follows. Cells are first rinsed with PBS to remove any residual solution and 200 μl NaOH is added to each cell. The plates are shaken for 4 hours to solubilize melanin produced by melanocytes. Solubilized melanin is measured by a spectrometer at 490 nm.

MelanoDerm tissues = test: Melanin synthesis inhibition in MelanoDerm tissues, separate assay, Table 3a; format: cell-based
Description: In a separate assay, further comparisons are made to 2% kojic acid solution, which is the industry standard for in vitro tissue testing, and market-based product that is hydroquinone free (“MB HQ Free”) but contains kojic acid and other skin brightening ingredients. In total, 31 prototypes are prepared, and 26 of those are assessed in MelanoDerm™ tissues, as described above.

## NC(=O)NC1NC(=O)NC1=O (stereo not shown) [Allantoin]
[1]; Day 6
  Percent (%) Reduction in Wound Width Relative to the Untreated Day 6: 68%
[1]; Day 6 after four microliters applied on wound, N=6, untreated Day 6 874
  Mean Wound Width Day 6: 280 μm

## Oc1ccc(O)cc1 [Control, hydroquinone, reference compound]
[2]
  Viability: 92% ± 1%
melanocytes
  Melanin Synthesis Inhibition (% inhibition vs. untreated): 20.6%
[3]
  Change from untreated (reduction in melanin synthesis): 24.3%
  Melanin Synthesis: 75.7% ± 0.9%

## CCCCCCc1ccc(O)cc1O [HR1, hexylresorcinol]
[2]
  Viability: 95% ± 3%
[3]
  Change from untreated (reduction in melanin synthesis): 6.9%
  Melanin Synthesis: 93.1% ± 0.7%

## CCCCCCc1ccc(O)cc1O [HR2, hexylresorcinol]
[2]
  Viability: 105% ± 8%
[3]
  Change from untreated (reduction in melanin synthesis): 2.1%
  Melanin Synthesis: 97.9% ± 2.1%

## CCCCCCc1ccc(O)cc1O [HR 1, hexylresorcinol]
melanocytes
  Melanin Synthesis Inhibition (% inhibition vs. untreated): 10.4%

## CCCCCCc1ccc(O)cc1O [HR 2, hexylresorcinol]
melanocytes
  Melanin Synthesis Inhibition (% inhibition vs. untreated): 10.2%

## CCCCCCc1ccc(O)cc1O [HR 3, hexylresorcinol]
melanocytes
  Melanin Synthesis Inhibition (% inhibition vs. untreated): 9.3%

## CCCCCCc1ccc(O)cc1O [HR 4, hexylresorcinol]
melanocytes
  Melanin Synthesis Inhibition (% inhibition vs. untreated): 8.8%

## O=c1cc(CO)occ1O [Kojic Acid, kojic acid]
MelanoDerm tissues
  Melanin Synthesis Inhibition Relative to Untreated (% inhibition): 73.51%

## CCCCCCc1ccc(O)cc1O [hexylresorcinol]
[3]; 0.0001% hexylresorcinol
  inhibits melanin synthesis: 2.1%
[3]; 0.00025% hexylresorcinol
  inhibits melanin synthesis: 6.9%
